# What was measured:
# [1] = system: HCT 116 (colon), NCIH460 (lung) and U251 (glioma) cell lines; experiment: Anti-cancer screen (MTT growth inhibition, 48 hours); assay type: cell-based; conditions: Homo sapiens; HCT 116, NCIH460 and U251 cell lines; MTT after 48 hours of incubation;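 further: mean GI50 across the three cell lines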
# Experimental: The experimental drugs were screened for anti-cancer activity in three cell lines using five concentrations for each compound. The cell lines—HCT 116 (colon), NCIH460 (lung) and U251 (glioma) were maintained in DMEM containing 10% fetal bovine serum. 96-well microtiter plates are inoculated with cells in 100 μL of cell suspension (5×10^4 cells/mL) for 24 hours at 37° C., 5% CO2, 95% air and 100% relative humidity. A separate plate with these cell lines is also inoculated to determine cell viability before the addition of the compounds (T0)
# Following 24-hour incubation, test compounds were added to the 96 well plates. Each plate contains one of the above cell lines and the following samples in triplicate: five different dilutions (0.01, 0.1, 1, 10 and 100 μM) of four test compounds, appropriate dilutions of a cytotoxic standard and growth medium (untreated) wells. Test compounds were dissolved in DMSO to prepare 20 mM stock solutions on the day of drug addition and serial dilutions were carried out in complete growth medium at 2× strength, such that 100 μL added to the wells gave final concentrations (0.01, 0.1, 1, 10 and 100 μM) in the well. SAHA was used as the standard drug in these experiments.
# For T0 measurement, 24 hours after seeding the cells, 20 μL of 3-(4,5-dimethyl-2-thiazolyl)-2,5-diphenyl-2H-tetrazolium (MTT) solution per well was added to the ‘T0’ plate and incubated for 3 hours at 37° C. in a CO2 incubator. The plate containing cells and test compounds was treated similarly after 48 hours of incubation. After 3 hours of MTT addition, well contents were aspirated carefully followed by addition of 150 μL DMSO per well. Plates were agitated to ensure dissolution of the formazan crystals in DMSO and absorbance was read at 570 nm (A570).
# Percent growth (PG) is calculated relative to the control and zero measurement wells (T0) as follows:
# PG values are plotted against drug concentration to derive the following: GI50 is the concentration required to decrease PG by 50% vs control; TGI is the concentration required to decrease PG by 100% vs control and LC50 is the concentration required to decrease PG by 50% vs T0. (Mosmann T. Rapid colorimetric assay for cellular growth and survival: application to proliferation and cytotoxicity assays. (J. Immunol. Methods. 1983, 65 (1-2), 55-63; Anne Monks et al); feasibility of high-flux anticancer drug screen using a diverse panel of cultured human tumor cell lines”. (JNCI, Vol. 83, No. 11, 1991). Results for growth inhibition of synthesized compounds are given in Table-1.
# [2] = system: IL-6 in supernatant of NCIH 460 cells; experiment: Measuring IL-6 in culture supernatants (ELISA); assay type: cell-based; conditions: Homo sapiens, NCI-H460, 5 hours incubation
GI50 [1],Structure (SMILES),inhibition at 10 µM [2]
1.2 µM,"COC(=O)/C(=C/c1ccccc1OCC(O)CNCc1ccc(OC)cc1OC)c1ccc(OC)cc1 (stereo not shown) [Example 45, 3-{2-[3-(2,4-Dimethoxybenzylamino)-2-hydroxypropoxy]phenyl}-2-(4-methoxyphenyl)acrylic acid methyl ester]",56%
13.1 µM,"COC(=O)/C(=C/c1ccc(F)c(C)c1)c1ccc(OCC(O)CNCc2ccccc2)cc1 (stereo not shown) [Example 21, 2-{4-[3-(Benzylamino)-2-hydroxypropoxy]phenyl}-3-(4-fluoro-3-methylphenyl)acrylic acid methyl ester]",22.8%
1.6 µM,"COC(=O)/C(=C/c1ccccc1OCC(O)CNCCOc1ccccc1OC)c1ccc(OC)cc1 (stereo not shown) [Example 46, 3-{2-[3-(2-Methoxyphenoxyethylamino)-2-hydroxypropoxy]phenyl}-2-(4-methoxyphenyl)acrylic acid methyl ester]",48%
4.1 µM,"COC(=O)/C(=C/c1cc(OC)cc(OC)c1)c1ccc(OCC(O)CNCc2ccc(OC)cc2OC)cc1 (stereo not shown) [Example 3, 2-{4-[3-(2,4-Dimethoxybenzylamino)-2-hydroxypropoxyl]phenyl}-3-(3,5-dimethoxyphenyl)acrylic acid methyl ester]",67%
3.5 µM,"COC(=O)/C(=C/c1ccc(OC)c(OC)c1)c1ccc(OCC(O)CNCc2ccc(OC)cc2OC)cc1 (stereo not shown) [Example 13, 2-{4-[3-(2,4-Dimethoxybenzylamino)-2-hydroxypropoxyl]phenyl}-3-(3,4,-dimethoxyphenyl)acrylic acid methyl ester]",67%
1.6 µM,"COC(=O)/C(=C/c1ccc(OCC(O)CNCCOc2ccccc2OC)cc1)c1cccc(Cl)c1 (stereo not shown) [Example 48, 3-{4-[3-(2-Methoxyphenoxyethylamino)-2-hydroxypropoxy]phenyl}-2-(3-chlorophenyl)acrylic acid methyl ester]",9%
2.1 µM,"COC(=O)/C(=C/c1ccc(OCC(O)CNCc2ccccc2)cc1)c1ccccc1 (stereo not shown) [Example 44, 3-{4-[3-(Benzylamino)-2-hydroxypropoxy]phenyl}-2-phenylacrylic acid methyl ester]",7.7%
16.1 µM,"COC(=O)/C(=C/c1ccc(Cl)cc1)c1ccc(OCC(O)CNCc2ccc(OC)cc2OC)cc1 (stereo not shown) [Example 22, 2-{4-[3-(2,4-Dimethoxybenzylamino)-2-hydroxypropoxy]phenyl}-3-(4-chlorophenyl)acrylic acid methyl ester]",59.8%
12.1 µM,"COC(=O)/C(=C/c1ccc(F)cc1)c1ccc(OCC(O)CNCCOc2ccccc2OC)cc1 (stereo not shown) [Example 26, 2-{4-[3-(2-Methoxyphenoxyethylamino)-2-hydroxypropoxy]phenyl}-3-(4-fluorophenyl)acrylic acid methyl ester]",36.2%
3 µM,"COC(=O)/C(=C/c1ccc(OCC(O)CNCc2ccc(OC)cc2OC)cc1)c1ccc(OC)cc1 (stereo not shown) [Example 12, 3-{4-[3-(2,4-Dimethoxybenzylamino)-2-hydroxypropoxyl]phenyl}-2-(4-methoxyphenyl)acrylic acid methyl ester]",55%
5.3 µM,"COC(=O)/C(=C/c1cc(OC)cc(OC)c1)c1ccc(OCC(O)CNCc2ccccc2)cc1 (stereo not shown) [Example 18, 2-{4-[3-(Benzylamino)-2-hydroxypropoxy]phenyl}-3-(3,5-dimethoxyphenyl)acrylic acid methyl ester]",25%
16.8 µM,"COC(=O)/C(=C/c1cc(OC)cc(OC)c1)c1ccc(OCC(O)CNCc2ccc(F)cc2)cc1 (stereo not shown) [Example 20, 2-{4-[3-(4-Fluorobenzylamino)-2-hydroxypropoxy]phenyl}-3-(3,5-dimethoxyphenyl)acrylic acid methyl ester]",0%
1.3 µM,"COC(=O)/C(=C/c1ccc(SC)cc1)c1ccc(OCC(O)CNCc2ccc(OC)cc2OC)cc1 (stereo not shown) [Example 28, 2-{4-[3-(2,4-Dimethoxybenzylamino)-2-hydroxypropoxy]phenyl}-3-(4-(methylthio)phenyl)acrylic acid methyl ester]",78.5%
> 100 µM,"COC(=O)/C(=C/c1ccc(F)c(OC)c1)c1ccc(OCC(O)CNCc2ccc(OC)cc2OC)cc1 (stereo not shown) [Example 9, 2-{4-[3-(2,4-Dimethoxybenzylamino)-2-hydroxypropoxyl]phenyl}-3-(4-fluoro-3-methoxyphenyl)acrylic acid methyl ester]",34%
12 µM,"COC(=O)/C(=C/c1ccc(OCC(O)CNCCOc2ccccc2OC)cc1)c1ccccc1 (stereo not shown) [Example 42, 3-{4-[3-(2-Methoxyphenoxyethylamino)-2-hydroxypropoxy]phenyl}-2-phenylacrylic acid methyl ester]",13%
15.5 µM,"COC(=O)/C(=C/c1ccccc1)c1ccc(OCC(O)CNCc2ccccc2)cc1 (stereo not shown) [Example 24, 2-{4-[3-(Benzylamino)-2-hydroxypropoxy]phenyl}-3-phenylacrylic acid methyl ester]",0%
12 µM,"COC(=O)/C(=C/c1ccc(OCC(O)CNCc2ccccc2)cc1)c1ccc(F)cc1 (stereo not shown) [Example 36, 3-{4-[3-(Benzylamino)-2-hydroxypropoxy]phenyl}-2-(4-fluorophenyl)acrylic acid methyl ester]",27.9%
1.9 µM,"COC(=O)/C(=C/c1ccc(OCC(O)CNCCOc2ccccc2OC)cc1)c1ccc(OC)cc1 (stereo not shown) [Example 29, 3-{4-[3-(2-Methoxyphenoxyethylamino)-2-hydroxypropoxy]phenyl}-2-(4-(methoxy)phenyl)acrylic acid methyl ester]",64.2%
11.7 µM,"COC(=O)/C(=C/c1ccc(SC)cc1)c1ccc(OCC(O)CNCCOc2ccccc2OC)cc1 (stereo not shown) [Example 23, 2-{4-[3-(2-Methoxyphenoxy-ethylamino)-2-hydroxy-propoxy]-phenyl}-3-(4-(methylthio)phenyl)-acrylic acid methyl ester]",54.2%
37.3 µM,"COC(=O)/C(=C/c1cc(OC)c(OC)c(OC)c1)c1ccc(OCC(O)CNCCOc2ccccc2OC)cc1 (stereo not shown) [Example 11, 2-{4-[3-(2-Methoxyphenoxyethylamino)-2-hydroxypropoxyl]phenyl}-3-(3,4,5-trimethoxyphenyl)acrylic acid methyl ester]",29%
3.6 µM,"COC(=O)/C(=C/c1cc(OC)c(OC)c(OC)c1)c1ccc(OCC(O)CNCc2ccc(OC(F)F)cc2)cc1 (stereo not shown) [Example 8, 2-{4-[3-(4-Difluoromethoxybenzylamino)-2-hydroxypropoxyl]phenyl}-3-(3,4,5-trimethoxyphenyl)acrylic acid methyl ester]",44%
3.4 µM,"COC(=O)/C(=C/c1ccccc1)c1ccc(OCC(O)CNCc2ccc(OC)cc2OC)cc1 (stereo not shown) [Example 17, 2-{4-[3-(2,4-Dimethoxybenzylamino)-2-hydroxypropoxy]phenyl}-3-phenylacrylic acid methyl ester]",25%
4 µM,"COC(=O)/C(=C/c1ccc(OC)c(OC)c1)c1ccc(OCC(O)CNCCOc2ccccc2OC)cc1 (stereo not shown) [Example 14, 2-{4-[3-(2-Methoxyphenoxyethylamino)-2-hydroxypropoxyl]phenyl}-3-(3,4,-dimethoxyphenyl)acrylic acid methyl ester]",38%
0.9 µM,"COC(=O)/C(=C/c1ccc(OCC(O)CNCc2ccccc2)cc1)c1cccs1 (stereo not shown) [Example 31, 3-{4-[3-(Benzylamino)-2-hydroxypropoxy]phenyl}-2-(thiophen-2-yl)acrylic acid methyl ester]",2.1%
3.1 µM,"COC(=O)/C(=C/c1cc(OC)cc(OC)c1)c1ccc(OCC(O)CNCCOc2ccccc2OC)cc1 (stereo not shown) [Example 5, 2-{4-[3-(2-Methoxyphenoxyethylamino)-2-hydroxypropoxyl]phenyl}-3-(3,5-dimethoxyphenyl)acrylic acid methyl ester]",37%
35.3 µM,"COC(=O)/C(=C/c1ccc(OCC(O)CNCc2ccc(F)cc2)cc1)c1ccccc1 (stereo not shown) [Example 10, 3-{4-[3-(4-Fluorobenzylamino)-2-hydroxypropoxyl]phenyl}-2-phenylacrylic acid methyl ester]",4.5%

# Reference: patent US20100298402A1, “STILBENE DERIVATIVES AS PSTAT3/IL-6 INHIBITORS” (ORCHID RESEARCH LABORATORIES LIMITED, priority 2007, published 2010)
